Experimental data reported in ChEMBL document CHEMBL1201862, “PubChem BioAssay data set” (2004).
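Briefly, cells in 96-well plates were exposed to five compound concentrations for 48 h, and endpoints were estimated by linear interpolation. Abbreviation: GI50, concentration required for 50% inhibition of growth.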 Calls of active or inactive are those of the source. No stated cut-off is given here; in the data, active = GI50 up to about 1.1 µM and inactive = higher.

Assays:
Experiment in all cases: DTP human tumour cell line panel, 48 h
SK-OV-3 = test system: SK-OV-3
OVCAR-4 = test system: OVCAR-4
HCT-15 = test system: HCT-15
HCC 2998 = test system: HCC 2998
SF-539 = test system: SF-539
SNB-19 = test system: SNB-19
SN12C = test system: SN12C
OVCAR-3 = test system: OVCAR-3
Malme-3M = test system: Malme-3M
SK-MEL-28 = test system: SK-MEL-28
ACHN = test system: ACHN
RXF 393 = test system: RXF 393
SW-620 = test system: SW-620
HT-29 = test system: HT-29
IGROV-1 = test system: IGROV-1
SNB-75 = test system: SNB-75

With `CC(=O)OCCOCNC(=S)N/N=C(\C)c1ccco1` the GI50 (SK-OV-3) was > 100 µM (inactive), the GI50 (OVCAR-4) was > 100 µM (inactive) and the GI50 (HCT-15) was over 100 µM. For the same compound, the GI50 (HCC 2998) was > 100 µM (inactive), the GI50 (SF-539) was > 100 µM (inactive) and the GI50 (SNB-19) was > 100 µM (inactive). For the same compound, the GI50 (SN12C) was > 100 µM (inactive), the GI50 (OVCAR-3) was > 100 µM (inactive) and the GI50 (Malme-3M) was > 100 µM (inactive). For the same compound, the GI50 (SK-MEL-28) was > 100 µM (inactive), the GI50 (ACHN) was > 100 µM (inactive) and the GI50 (RXF 393) was > 100 µM (inactive). For the same compound, the GI50 (SW-620) was > 100 µM (inactive), the GI50 (HT-29) was > 100 µM (inactive) and the GI50 (IGROV-1) was > 100 µM (inactive). For the same compound, the GI50 (SNB-75) was 61 µM (inactive).
For `Brc1ccc(C2SCc3nc4ccccc4n32)cc1` (stereo not given), the GI50 (SK-OV-3) was 16.7 µM (inactive), the GI50 (OVCAR-4) was 7.53 µM (inactive) and the GI50 (HCT-15) was 11.3 µM. The GI50 (SF-539) was 18.5 µM (inactive), the GI50 (SNB-19) was 4.48 µM (inactive) and the GI50 (SN12C) was 13.7 µM (inactive). For the same compound, the GI50 (OVCAR-3) was 4.83 µM (inactive), the GI50 (Malme-3M) was 12.9 µM (inactive) and the GI50 (SK-MEL-28) was 4.72 µM (inactive). The GI50 (ACHN) was 8.2 µM (inactive), the GI50 (RXF 393) was 7.45 µM (inactive) and the GI50 (SW-620) was 13.3 µM (inactive). The GI50 (HT-29) was 7.78 µM (inactive), the GI50 (IGROV-1) was 10.3 µM (inactive) and the GI50 (SNB-75) was < 0.01 µM (active).
In the case of `COC(=O)c1nc(C(=O)OC)c2c([nH]c3ccccc32)c1C(=O)OC`, the GI50 (OVCAR-4) is reported as > 10 µM (inactive), the GI50 (HCT-15) is reported as 53.5 µM and the GI50 (HCC 2998) is reported as > 100 µM (inactive). For the same compound, the GI50 (SF-539) was > 100 µM (inactive), the GI50 (SN12C) was > 100 µM (inactive) and the GI50 (OVCAR-3) was > 100 µM (inactive). For the same compound, the GI50 (Malme-3M) was > 100 µM (inactive), the GI50 (SK-MEL-28) was 88.9 µM (inactive) and the GI50 (RXF 393) was 31.8 µM (inactive). For the same compound, the GI50 (SW-620) was > 100 µM (inactive), the GI50 (HT-29) was > 100 µM (inactive) and the GI50 (IGROV-1) was > 100 µM (inactive). The GI50 (SNB-75) was 41.5 µM (inactive).
In the case of `C1CN2CCO[SiH](O1)OCC2`, the GI50 (SK-OV-3) is reported as > 100 µM (inactive), the GI50 (HCC 2998) is reported as > 100 µM (inactive) and the GI50 (SF-539) is reported as > 100 µM (inactive). For the same compound, the GI50 (SNB-19) was > 100 µM (inactive), the GI50 (SN12C) was > 100 µM (inactive) and the GI50 (OVCAR-3) was > 100 µM (inactive). The GI50 (Malme-3M) was > 100 µM (inactive), the GI50 (SK-MEL-28) was > 100 µM (inactive) and the GI50 (ACHN) was > 100 µM (inactive). The GI50 (RXF 393) was > 100 µM (inactive), the GI50 (SW-620) was > 100 µM (inactive) and the GI50 (HT-29) was > 100 µM (inactive). The GI50 (IGROV-1) was > 100 µM (inactive) and the GI50 (SNB-75) was > 100 µM (inactive).
`COC(=O)[C@@]1(C)C(=O)CC[C@@H]1C=O` was tested, and the GI50 (SK-OV-3) was > 100 µM (inactive), the GI50 (OVCAR-4) was > 100 µM (inactive) and the GI50 (HCT-15) was over 100 µM. The GI50 (SF-539) was > 100 µM (inactive), the GI50 (SNB-19) was > 100 µM (inactive) and the GI50 (SN12C) was > 100 µM (inactive). The GI50 (OVCAR-3) was > 100 µM (inactive), the GI50 (Malme-3M) was > 100 µM (inactive) and the GI50 (ACHN) was > 100 µM (inactive). For the same compound, the GI50 (SW-620) was > 100 µM (inactive), the GI50 (HT-29) was > 100 µM (inactive) and the GI50 (IGROV-1) was > 100 µM (inactive).
